From patent publication US11179383B2 (Gilead Sciences, Inc., priority 2018, dated 2021)

Biological target: T1, α4β7 integrin (Homo sapiens, UniProt P13612+P26010)
T1 construct: monitoring the capture of α4β7 integrin expressing cells on a recombinant MadCAM-1 extracellular domain-coated plate; endogenous in cells; host or cells: RPMI8866 cells
T1 sequence (P13612 34-1032): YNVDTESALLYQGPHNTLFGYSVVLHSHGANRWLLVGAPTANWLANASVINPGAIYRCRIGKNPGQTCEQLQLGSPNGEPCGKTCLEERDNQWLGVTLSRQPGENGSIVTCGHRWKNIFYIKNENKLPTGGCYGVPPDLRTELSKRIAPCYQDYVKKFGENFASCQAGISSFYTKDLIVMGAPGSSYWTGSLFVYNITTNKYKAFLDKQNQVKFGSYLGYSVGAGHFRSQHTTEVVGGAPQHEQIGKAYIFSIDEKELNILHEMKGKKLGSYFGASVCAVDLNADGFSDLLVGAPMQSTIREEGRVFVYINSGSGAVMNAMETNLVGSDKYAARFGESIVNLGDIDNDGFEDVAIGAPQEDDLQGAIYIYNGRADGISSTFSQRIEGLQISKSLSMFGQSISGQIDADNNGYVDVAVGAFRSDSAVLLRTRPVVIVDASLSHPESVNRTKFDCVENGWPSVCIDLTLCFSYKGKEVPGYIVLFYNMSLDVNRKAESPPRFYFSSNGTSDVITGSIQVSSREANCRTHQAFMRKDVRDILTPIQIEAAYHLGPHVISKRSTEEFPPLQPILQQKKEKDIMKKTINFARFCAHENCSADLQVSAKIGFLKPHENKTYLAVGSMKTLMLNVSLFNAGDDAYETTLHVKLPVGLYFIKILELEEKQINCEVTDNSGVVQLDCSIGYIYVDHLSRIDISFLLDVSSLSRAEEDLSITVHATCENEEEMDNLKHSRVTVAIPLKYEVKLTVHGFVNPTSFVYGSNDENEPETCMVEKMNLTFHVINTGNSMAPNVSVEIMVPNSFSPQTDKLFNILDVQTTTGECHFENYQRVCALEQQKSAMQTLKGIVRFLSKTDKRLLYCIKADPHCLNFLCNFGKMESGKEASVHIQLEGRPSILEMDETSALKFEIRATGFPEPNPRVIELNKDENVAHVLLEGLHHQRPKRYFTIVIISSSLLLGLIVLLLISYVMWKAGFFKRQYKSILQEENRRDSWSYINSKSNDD
T1 sequence (P26010 20-798): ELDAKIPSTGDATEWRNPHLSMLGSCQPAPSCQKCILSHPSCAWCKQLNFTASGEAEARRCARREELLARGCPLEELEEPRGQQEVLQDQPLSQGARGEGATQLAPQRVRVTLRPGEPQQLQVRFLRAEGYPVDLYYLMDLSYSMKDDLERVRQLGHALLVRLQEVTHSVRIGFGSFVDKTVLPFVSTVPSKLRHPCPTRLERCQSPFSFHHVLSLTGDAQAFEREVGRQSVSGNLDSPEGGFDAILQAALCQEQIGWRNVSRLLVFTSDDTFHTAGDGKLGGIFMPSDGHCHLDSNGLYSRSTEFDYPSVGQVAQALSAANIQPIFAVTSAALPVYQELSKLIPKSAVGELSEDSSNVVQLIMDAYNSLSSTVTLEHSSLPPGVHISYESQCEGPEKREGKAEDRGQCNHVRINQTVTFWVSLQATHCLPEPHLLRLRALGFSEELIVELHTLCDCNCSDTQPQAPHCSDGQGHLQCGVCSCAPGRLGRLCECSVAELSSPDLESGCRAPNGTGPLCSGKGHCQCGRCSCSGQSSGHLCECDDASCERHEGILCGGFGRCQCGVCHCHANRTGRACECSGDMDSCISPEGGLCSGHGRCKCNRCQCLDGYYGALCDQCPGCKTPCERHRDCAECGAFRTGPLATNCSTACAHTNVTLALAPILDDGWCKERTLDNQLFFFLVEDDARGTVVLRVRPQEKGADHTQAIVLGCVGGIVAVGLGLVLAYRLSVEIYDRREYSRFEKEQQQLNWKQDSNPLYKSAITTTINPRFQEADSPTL
Assay: α4β7 Integrin Cell Capture Assay
Assay type: cell-based
Conditions: capture of α4β7 integrin expressing RPMI8866 cells on recombinant MadCAM-1 extracellular domain-coated plate; DMEM+0.5% FBS+0.5 mM MnCl2; read-out: EC50 α4β7
Procedure, shortened: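 RPMI8866 cells in DMEM + 0.5% FBS + 0.5 mM MnCl2 preincubated with compound 1 h at 37 °C, then allowed to bind 30 min at 37 °C to plates coated with MAdCAM-1 extracellular domain (1.0 μg/mL). Cells fixed with glutaraldehyde, Hoechst-stained, imaged and bound cells counted; EC50 from cell count versus concentration.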

Row | EC50 [nM] | Structure (SMILES)
1 | 72.6 | O=C(N[C@@H](Cc1ccc(-c2cc(F)c(F)cc2OC2CC2)c2ccccc12)C(=O)O)c1c(Cl)cccc1Cl [Example 116, (S)-3-(4-(2-cyclopropoxy-4,5-difluorophenyl)naphthalen-1-yl)-2-(2,6-dichlorobenzamido)propanoic acid]
2 | 55.1 | Cc1c(-c2ccc(C[C@H](NC(=O)c3c(Cl)cccc3Cl)C(=O)O)c3ncccc23)c(=O)n(C)c2ccc(Br)cc12 [Example 70, (S)-3-(6-bromo-1,4-dimethyl-2-oxo-1,2-dihydro-[3,5′-biquinolin]-8′-yl)-2-(2,6-dichlorobenzamido)propanoic acid]
3 | 139 | O=C(N[C@@H](Cc1ccc(-c2c(Cl)cc(F)cc2Cl)c2ccccc12)C(=O)O)c1c(Cl)cccc1Cl [Example 107, (S)-3-(4-(2,6-dichloro-4-fluorophenyl)naphthalen-1-yl)-2-(2,6-dichlorobenzamido)propanoic acid]
4 | 13.7 | CC[C@@H](Nc1cc(F)c(C(=O)N[C@@H](Cc2ccc(-c3c(C)cc(C)n(C)c3=O)c3ccccc23)C(=O)O)c(F)c1)C(F)(F)F (single isomer, unassigned) [Example 132]
5 | 115 | COc1cc(F)cc(Cl)c1-c1ccc(C[C@H](NC(=O)c2c(Cl)cccc2Cl)C(=O)O)c2ncccc12 [Example 36, (2S)-3-(5-(2-chloro-4-fluoro-6-methoxyphenyl)quinolin-8-yl)-2-(2,6-dichlorobenzamido)propanoic acid]
6 | 417 | COc1cccc(F)c1C(=O)N[C@@H](Cc1ccc(-c2c(Cl)cc(F)cc2Cl)c2cccnc12)C(=O)O [Example 2, (S)-3-(5-(2,6-dichloro-4-fluorophenyl)quinolin-8-yl)-2-(2-fluoro-6-methoxybenzamido)propanoic acid]
7 | 26.8 | Cn1c(=O)c(-c2ccc(C[C@H](NC(=O)c3c(Cl)cccc3Cl)C(=O)O)c3ncccc23)c(C(F)(F)F)c2cc(Br)ccc21 (single isomer, unassigned) [Example 65]
8 | 0.8 | CCOCc1cc(OC)c(-c2ccc(C[C@H](NC(=O)c3c(F)cc(NS(=O)(=O)c4ccc(-c5ccnc(F)c5)cc4)cc3F)C(=O)O)c3ccccc23)c(OC)c1 [Example 105, (S)-2-(2,6-difluoro-4-((4-(2-fluoropyridin-4-yl)phenyl)sulfonamido)benzamido)-3-(4-(4-(ethoxymethyl)-2,6-dimethoxyphenyl)naphthalen-1-yl)propanoic acid]
9 | 3 | Cc1cc(C(F)(F)F)c(-c2ccc(C[C@H](NC(=O)c3c(F)cc(N4CCOC[C@@H]4C(F)(F)F)cc3F)C(=O)O)c3ncccc23)c(=O)n1C (single isomer, unassigned) [Example 85]
10 | 0.6 | CCOCc1cc(OC)c(-c2ccc(CC(NC(=O)c3c(F)cc(NS(=O)(=O)c4ccc(-c5ccnc(F)c5)cc4)cc3F)C(=O)O)c3cnn(C)c23)c(OC)c1 (centres unmarked) [Example 146, 2-(2,6-difluoro-4-((4-(2-fluoropyridin-4-yl)phenyl)sulfonamido)benzamido)-3-(7-(4-(ethoxymethyl)-2,6-dimethoxyphenyl)-1-methyl-1H-indazol-4-yl)propanoic acid]
11 | 24.4 | CCOCc1cc(OC)c(-c2cnc(C[C@H](NC(=O)c3c(F)cc(NS(=O)(=O)c4ccc(-c5ccnc(F)c5)cc4)cc3F)C(=O)O)c3cccnc23)c(OC)c1 [Example 166, (S)-2-(2,6-difluoro-4-((4-(2-fluoropyridin-4-yl)phenyl)sulfonamido)benzamido)-3-(8-(4-(ethoxymethyl)-2,6-dimethoxyphenyl)-1,6-naphthyridin-5-yl)propanoic acid]
12 | 28.6 | Cc1c(-c2ccc(C[C@H](NC(=O)c3c(Cl)cccc3Cl)C(=O)O)c3ncccc23)c(=O)n(C)c2ccccc12 (single isomer, unassigned) [Example 47]
13 | 0.1 | Cn1c(=O)c(-c2ccc(C[C@H](NC(=O)c3c(F)cc(N4CCOC[C@@H]4C(F)(F)F)cc3F)C(=O)O)c3ccccc23)cc2cnccc21 [Example 140, (S)-2-(2,6-difluoro-4-((R)-3-(trifluoromethyl)morpholino)benzamido)-3-(4-(1-methyl-2-oxo-1,2-dihydro-1,6-naphthyridin-3-yl)naphthalen-1-yl)propanoic acid]
14 | 32.2 | COc1cc(F)c(F)cc1-c1ccc(C[C@H](NC(=O)c2c(Cl)cccc2Cl)C(=O)O)c2ncccc12 [Example 46, (S)-2-(2,6-dichlorobenzamido)-3-(5-(4,5-difluoro-2-methoxyphenyl)quinolin-8-yl)propanoic acid]
15 | 32.7 | Cc1c(-c2ccc(C[C@H](NC(=O)c3c(Cl)cccc3Cl)C(=O)O)c3ncccc23)ncc2ccccc12 [Example 40, (S)-2-(2,6-dichlorobenzamido)-3-(5-(4-methylisoquinolin-3-yl)quinolin-8-yl)propanoic acid]
16 | 68.5 | COc1cc(F)c(C)cc1-c1ccc(C[C@H](NC(=O)c2c(Cl)cccc2Cl)C(=O)O)c2ncccc12 [Example 56, (S)-2-(2,6-dichlorobenzamido)-3-(5-(4-fluoro-2-methoxy-5-methylphenyl)quinolin-8-yl)propanoic acid]
17 | 139 | O=C(N[C@@H](Cc1ccc(-c2c(Cl)cc(F)cc2Cl)c2cccnc12)C(=O)O)c1c(F)cc(N2CCOCC2C(F)(F)F)cc1F (single isomer, unassigned) [Example 6]
18 | 10.9 | Cn1c(=O)c(-c2ccc(C[C@H](NC(=O)c3c(F)cccc3F)C(=O)O)c3ncccc23)cc2ccccc21 [Example 84, (S)-2-(2,6-difluorobenzamido)-3-(1-methyl-2-oxo-1,2-dihydro-[3,5′-biquinolin]-8′-yl)propanoic acid]
19 | 46.4 | Cc1ccn(C)c(=O)c1-c1ccc(CC(NC(=O)c2c(Cl)cccc2Cl)C(=O)O)c2ncccc12 (centres unmarked) [Example 30, 2-(2,6-Dichlorobenzamido)-3-(5-(1,4-dimethyl-2-oxo-1,2-dihydropyridin-3-yl)quinolin-8-yl)propanoic acid]
20 | 1.9 | Cc1c(-c2ccc(C[C@H](NC(=O)c3c(F)cccc3F)C(=O)O)c3nccnc23)c(=O)n(C)c2ccc(F)cc12 [Example 159, (S)-2-(2,6-difluorobenzamido)-3-(8-(6-fluoro-1,4-dimethyl-2-oxo-1,2-dihydroquinolin-3-yl)quinoxalin-5-yl)propanoic acid]
21 | 76.6 | O=C(N[C@@H](Cc1ccc(-c2cccc3c2OCCC3)c2ccccc12)C(=O)O)c1c(Cl)cccc1Cl [Example 111, (S)-3-(4-(chroman-8-yl)naphthalen-1-yl)-2-(2,6-dichlorobenzamido) propanoic acid]
22 | 1.5 | Cc1c(-c2ccc(C[C@H](NC(=O)c3c(F)cccc3F)C(=O)O)c3ccccc23)c(=O)n(C)c2ccccc12 (single isomer, unassigned) [Example 120]
23 | 37.8 | COc1cccc(OC)c1-c1ccc(C[C@@H](NC(=O)c2c(F)cc(NS(=O)(=O)c3ccc(-n4cncn4)cc3)cc2F)C(=O)O)c2ccncc12 (single isomer, unassigned) [Example 165]
